US5013741A, “N-[substituted alkylidene]-1,2,3,4-tetrahydro-9-acridinamines useful for enhancing the cholinergic function in a mammal” (priority 1988, dated 1991)

Experiments:
acetylcholinesterase = experiment: Acetylcholinesterase Inhibition Assay (photometric method of Ellman et al.); assay type: biochemical
[1] = tested on: Scopolamine Induced Memory Deficit; experiment: Dark Avoidance Assay (scopolamine induced memory deficit reversal); assay type: in vivo; settings: s.c., mice, retest after 24 hours
Protocol: In this assay mice are tested for their ability to remember an unpleasant stimulus for a period of 24 hours. A mouse is placed in a chamber that contains a dark compartment; a strong incadescent light drives it to the dark compartment,where an electric shock is administered through metal plates on the floor. The animal is removed from the testing apparatus and tested again, 24 hours later, for the ability to remember the electric shock.
If scopolamine, an anticholinergic that is known to cause memory impairment, is administered before an animal's initial exposure to the test chamber, the animal re-enters the dark compartment shortly after being placed in the test chamber 24 hours later. This effect of scopolamine is blocked by an active test compound, resulting in a greater interval before re-entry into the dark compartment.
The results for an active compound are expressed as the percent of a group of animals in which the effect of scopolamine is blocked, as manifested by an increased interval between being placed in the test chamber and re-entering the dark compartment.

Sequence of acetylcholinesterase (P22303 32-614): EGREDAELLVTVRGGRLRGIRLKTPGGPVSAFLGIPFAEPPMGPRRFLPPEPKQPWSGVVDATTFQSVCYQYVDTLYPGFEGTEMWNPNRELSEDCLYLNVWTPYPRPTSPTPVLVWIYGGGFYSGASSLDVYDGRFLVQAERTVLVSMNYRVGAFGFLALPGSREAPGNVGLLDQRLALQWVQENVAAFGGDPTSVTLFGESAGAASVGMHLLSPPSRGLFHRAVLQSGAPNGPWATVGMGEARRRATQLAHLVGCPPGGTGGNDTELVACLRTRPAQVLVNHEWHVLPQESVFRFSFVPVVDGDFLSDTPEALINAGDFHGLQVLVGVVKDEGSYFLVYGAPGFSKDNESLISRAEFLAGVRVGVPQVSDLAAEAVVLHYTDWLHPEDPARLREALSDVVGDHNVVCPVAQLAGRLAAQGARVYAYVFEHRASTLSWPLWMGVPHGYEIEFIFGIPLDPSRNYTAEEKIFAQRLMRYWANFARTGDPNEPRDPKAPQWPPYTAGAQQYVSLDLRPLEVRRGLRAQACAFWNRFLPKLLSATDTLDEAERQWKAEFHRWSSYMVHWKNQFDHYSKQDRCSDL

| SMILES | IC50 (acetylcholinesterase) | % of Animals with Scopolamine Induced Memory Deficit Reversal ([1]; 0.31 mg/kg of body weight) | % of Animals with Scopolamine Induced Memory Deficit Reversal ([1]; 5.0 mg/kg of body weight) | % of Animals with Scopolamine Induced Memory Deficit Reversal ([1]; 0.63 mg/kg of body weight) |
| --- | --- | --- | --- | --- |
| Oc1ccccc1C=Nc1c2c(nc3ccccc13)CCCC2 [9-Amino-N-[(2-hydroxyphenyl)methylene]-1,2,3,4-tetrahydroacridine, hemi-fumarate] | 5.1 µM | – | – | – |
| C(=Nc1c2c(nc3ccccc13)CCCC2)c1ccccc1 [N-Phenylmethylene-1,2,3,4-tetrahydro-9-acridinamine] | 0.23 µM | 27% | 60% | – |
| CC[C@@H]1C(=O)OC[C@@H]1Cc1cncn1C [Pilocarpine, reference compound] | – | – | 13% | – |
| Nc1c2c(nc3ccccc13)CCCC2 [Tacrine, 9-amino-1,2,3,4-tetrahydroacridine, reference compound] | – | – | – | 13% |
